From article PMC12090182, “Repurposing of the RIPK1-Selective Benzo[1,4]oxazepin-4-one Scaffold for the Development of a Type III LIMK1/2 Inhibitor” (ACS Chemical Biology, 2025)
“And” between values parts separate entries of the source, which are not always exact repeats. Equal values may be shown once.

How the values were obtained:
Type in all cases: cell-based
HEK293T cells = conditions: HEK293T, 10 µM
Protocol: (§1) To assess the influence on cell health, a high-content screening in living cells called the multiplex high-content assay, as described previously by Tjaden et al., was performed.[38] In brief, HEK293T (ATCC CRL-1573) and U2OS (ATCCHTB-96) were cultured in DMEM plus L-glutamine (high glucose) supplemented by 10% FBS (Gibco) and penicillin/streptomycin (Gibco). MRC-9 fibroblasts ([…]) were cultured in EMEM plus L-glutamine supplemented by 10% FBS (Gibco) and penicillin/streptomycin (Gibco). Cells were seeded at a density of 1250 cells per well in a 384-well plate in a culture medium (cell culture microplate, PS, f-bottom, μClear, 781091, Greiner), with a volume of 50 μL per well. All outer wells were filled with 100 μL of PBS buffer (Gibco). […] The cell shape and fluorescence were measured before treatment and 12, 24, and 48 h after compound treatment using the CQ1 high-content confocal microscope (Yokogawa, Musashino, Japan). […] The compounds were tested at 1 and 10 μM, respectively. Acquired images of the cells were processed using Yokogawa CellPathfinder software (v3.04.02.02). […] Results were normalized to cells exposed to 0.1% DMSO. All compounds were tested in biological duplicates, and SEM (standard error of mean) was calculated of biological duplicates.

U2OS cells = conditions: U2OS; 10 µM; 0 h after treatment
Protocol: as §1

MRC-9 cells = experiment: Multiplex high-content viability assessment; conditions: human fibroblast, 10 µM
Protocol: as §1

## CN[C@@H]1C[C@H]2O[C@@](C)([C@@H]1OC)n1c3ccccc3c3c4c(c5c6ccccc6n2c5c31)C(=O)NC4 [staurosporine]
HEK293T cells; 0 h after treatment
  Population with membrane disruption (%): 0.00%
HEK293T cells; 12 h after treatment
  Population Healthy Nuclei (%): 64.72% and 69.22% and 71.09%
  Population cell that influence microtubule strucutre (%): 37.22% and 35.67%
HEK293T cells; 48 h after treatment
  Population apoptotic cell (%): 60.00% and 75.00% and 76.47%
U2OS cells
  Population with increased mitochondrial mass (%): 2.11% and 3.70% and 5.56%
MRC-9 cells; 0 h after treatment
  Population Healthy Nuclei (%): 63.64% and 62.50% and 53.61% and 54.10%
MRC-9 cells; 12 h after treatment
  Population Fragmented Nuclei (%): 57.03% and 59.76% and 57.04% and 49.59%
  Population Healthy Nuclei (%): 32.43% and 29.76% and 33.41% and 38.90%
  Population apoptotic cell (%): 48.72% and 46.51% and 42.50% and 50.00%
MRC-9 cells; 24 h after treatment
  Population Fragmented Nuclei (%): 56.12% and 54.77% and 50.00% and 53.32%
  Population Healthy Nuclei (%): 37.01% and 35.97% and 41.62% and 36.60%
MRC-9 cells; 48 h after treatment
  Population Fragmented Nuclei (%): 53.07% and 56.00% and 48.62% and 54.18%
  Population Healthy Nuclei (%): 39.48% and 36.86% and 44.48% and 39.35%
